Assay results from the NIST ThermoML archive (doi:10.1016/j.jct.2009.07.011).
Numbers after ± are expanded uncertainties.

Experiments:
[1] = molar enthalpy of vaporization or sublimation; settings: 298.15 K; Crystal; Static calorimetry
[2] = 298.15 K, Static calorimetry; for molar enthalpy of sublimation: Crystal

Row | Compound | molar enthalpy [1] | molar enthalpy of sublimation [2] | also measured
1 | Oc1cccc(F)c1F [2,3-Difluorophenol] | 16.3 ± 0.717 kcal/mol | – | –
2 | Oc1ccc(F)cc1F [2,4-Difluorophenol] | – | – | molar enthalpy of vaporization ([2]; Liquid): 14.1 ± 0.43 kcal/mol
3 | Oc1cc(F)ccc1F [2,5-Difluorophenol] | 16.3 ± 0.669 kcal/mol | – | –
4 | Oc1c(F)cccc1F [2,6-difluorophenol] | 18.6 ± 0.908 kcal/mol | – | –

Continued, in another order:

Row | molar enthalpy [1] | molar enthalpy of sublimation [2] | Compound | also measured
5 | – | 17.4 ± 0.717 kcal/mol | Oc1ccc(F)c(F)c1 [3,4-Difluorophenol] | –
6 | – | 17.4 ± 1.05 kcal/mol | Oc1cc(F)cc(F)c1 [3,5-Difluorophenol] | –
